Measured values published in patent EP0362382A1, “METHOD OF STERILIZING PLANT POLLEN” (VSESOJUZNY NAUCHNO-ISSLEDOVATELSKY INST. SELSKOKHOZYAISTV. …, priority 1988, dated 1989).

Tested on: Sommerweizen
Experiment: Field test of gametocidal activity (sterilisation of anthers), spring wheat
Type: in vivo
Details: V. Periode der Organogenese
Source text: Die gametozide Aktivitat der erfindungsgemäßen Sterilisationsmittel war im Feldversuch in verschiedenen bodenklimatischen Zonen mit Teilstücken von 10 m^2 Größe in drei- bis viermaliger Wiederholung festgestellt. Jedes Sterilisationsmittel wurde mindenstens 5 Jahre lang geprüft.
Die Entwicklung der Perioden der Organogenese wird zytologisch überwacht. Die Behandlung von Pflanzen mit dem Sterilisationsmittel erfolgt am Anfang der fünften Periode der Organogenese nach Kupermann.
Mit dem Ährenschieben verwirklicht man die Isolierung von Hauptähren und anderen Stockwerken in Pergamentbeuteln. Bei Weizen und Tritikale werden Einzelisolatoren benutzt. Bei Roggen schließt man je Ähre 5 bis 7 verschiedene nebeneinander befindliche Pflanzen unter einen gemeinsamen Isolator ein. Bei Hierse wird jede Rispe getrennt isoliert. Der Sterilitätsprozentsatz (X) für Weizen, Roggen, Tritikale und Hirse wird nach der Formel [formula] ermittelt.
Die Kornzahl in nicht isolierten Ähren von Kontrollpflanzen wird bedingt für 100 % Ansetzen bei freier Bestäubung angenommen.
Um zuverlässige Angaben zu erhalten, verwendet man 20 bis 25 Isolatoren jeder Wiederholung für Weizen und Tritikale, 10 .bis 15 Isolatoren jeder Wiederholung für Roggen und Hirse.
Pflanzen des Sommerweizens Sorte Moskowskaja 35 werden in der V. Periode der Organogenese (nach Kupermann) mit 1%iger wäßriger Emulsion von δ, δ' -Thiodivaleriansäure, Natriumsalz der δ, δ' -Thiodivaleriansäure, δ, δ'--Sulfonyldivaleriansäure, Natriumsalz der d, δ' -Sulfonyldivaleriansäure, Kaliumsalz der δ, δ' -Sulfornyldivaleriansäure, Bis (die-n-butyläther) der δ, δ' -Thiodivaleriansäure, 4-Karboxybutyldezylsulfid, Bis(2-äthylhexyläther) der δ, δ' -Thiodivaleriansäure behandelt. Die Emulsion enthält 0,1 Masse% Kalziumalkylbenzolsulfonat mit 12 bis 14 Kohlenstoffatomen und 0,01 Masse% Dimethylsulfoxid. Der Verbrauch an Präparat beträgt 6 kg/ha. Als Kontrolle dienen Pflanzen, behandelt mit einem Verdünner ohne Sterilisationsmittel. Die Prüfergebnisse sind in der Tabelle 4 angegeben. […] Periode der Organogenese erhalten.
(§1) Pflanzen des Sommerweizens Sorte Rodina werden in der V. Periode der Organogenese (nach Kupermann) mit l%iger wäßriger Emulsion von δ, δ' -Sulfornyldivaleriansäure, 4-Karboxybutyldezylsulfid, Bis(2-äthylhexyläther) der δ, δ' -Thiodivaleriansäure behandelt. Die Emulsion enthält 0,1 Masse% Kalziumalkylbenzolsulfonat mit 12 bis 14 Kohlenstoffatomen und 0,01 Masse% Tetrahydrofuran. Der Verbrauch an Präparat beträgt 6 kg/ha. Als Kontrolle dienen Pflanzen, behandelt mit einem Verdünner ohne Sterilisationsmittel. Die Prüfergebnisse sind in der Tabelle 5 angegeben. […] Periode der Organogenese erhalten.
Pflanzen des Sommerwizens Sorte Charkowskaja 9 werden in der V. Periode der Organogenese (nach Kupermann.) mit 1%iger waßriger Emulsion von Bis(di-n-butyläther) der δ, δ' -Thiodivaleriansäure, Bis(2-äthylhexyläther) der δ, δ' -Thiodivaleriansäure behandelt. Die Emulsion enthält 0,1 Masse% Kalziumalkylbenzolsulfonat mit 12 bis 14 Kohlenstoffatomen und 0,01 Masse% Äthylenglykol. Der Verbrauch an Präparat beträgt 8 kg/ha. Als Kontrolle dienen Pflanzen, behandelt mit einem Verdünner ohne Sterilisationsmittel. Die Prüfergebnisse sind in der Tabelle 6 angegeben. […] Periode der Organogenese erhalten.
as §1, with “Botanitscheskaja 4” for “Rodina”, “1%iger” for “l%iger”, “von Natriumsatz der” for “von”, “--Thiodivaleriansäure, Bis(di-n-butyläther) der δ, δ' -Thiodiväleriansäure,” for “-Sulfornyldivaleriansäure,”, “Dodezylsulfat.” for “Tetrahydrofuran.”, “7” for “5”

[1] = Sorte Moskowskaja 35, 1%ige wäßrige Emulsion, 6 kg/ha
[2] = Sorte Charkowskaja 9, 1%ige Emulsion, 8 kg/ha
[3] = Sorte Rodina, 1%ige wäßrige Emulsion, 6 kg/ha
[4] = Sorte Botanitscheskaja 4, 1%ige wäßrige Emulsion, 6 kg/ha

Compound	Anzahl von Körnern der Ähre bei freier Bestäubung [1]	Anzahl von Körnern der Ähre im Isolator [1]	Prozentsatz der Sterilität [1]	Prozentsatz des Ansetzens von Körnern bei freier Bestäubung [1]	other results
CCCCC(CC)COC(=O)CCCCSCCCCC(=O)OCC(CC)CCCC (stereo not shown) [Beispiel 22, Bis(2-äthylhexyläther) der δ, δ' -Thiodivaleriansäure]	25,7	0,0	100,0%	80,6%	–
O=C([O-])CCCCSCCCCC(=O)[O-].[Na+].[Na+] [Beispiel 16, Natriumsalz der δ, δ' -Thiodivaleriansäure]	30,8	0,9	97,0%	96,5%	–
Bis(di-n-butyläther) der δ, δ' -Thiodivaleriansäure [Beispiel 26]	–	–	–	–	Anzahl von Körnern der Ähre bei freier Bestäubung [2]: 28,7; Anzahl von Körnern der Ähre im Isolator [2]: 0,0; Prozentsatz der Sterilität [2]: 100,0%; Prozentsatz des Ansetzens von Körnern bei freier Bestäubung [2]: 89,1%
O=C([O-])CCCCS(=O)(=O)CCCCC(=O)[O-].[Na+].[Na+] [Beispiel 18, Natriumsalz der d, δ' -Sulfonyldivaleriansäure]	31,1	0,3	99,0%	97,4%	–
CCCCCCCCCCSCCCCC(=O)O [Beispiel 24, 4-Karboxybutyldezylsulfid]	–	–	–	–	Anzahl von Körnern der Ähre bei freier Bestäubung [3]: 29,8; Anzahl von Körnern der Ähre im Isolator [3]: 0,0; Prozentsatz der Sterilität [3]: 100,0%; Prozentsatz des Ansetzens von Körnern bei freier Bestaubung [3]: 79,5%
CCCCCCCCCCSCCCCC(=O)O [Beispiel 21, 4-Karboxybutyldezylsulfid]	26,9	0,0	100,0%	84,3%	–
CCCCC(CC)COC(=O)CCCCSCCCCC(=O)OCC(CC)CCCC (stereo not shown) [Beispiel 25, Bis(2-äthylhexyläther) der δ, δ' -Thiodivaleriansäure]	–	–	–	–	Anzahl von Körnern der Ähre bei freier Bestäubung [3]: 31,2; Anzahl von Körnern der Ähre im Isolator [3]: 0,0; Prozentsatz der Sterilität [3]: 100,0%; Prozentsatz des Ansetzens von Körnern bei freier Bestaubung [3]: 83,2%
O=C([O-])CCCCSCCCCC(=O)[O-].[Na+].[Na+] [Beispiel 28, Natriumsatz der δ, δ' --Thiodivaleriansäure]	–	–	–	–	Anzahl von Körnern der Ähre bei freier Bestäubung [4]: 36,2; Anzahl von Körnern der Ähre im Isolator [4]: 0,3; Prozentsatz der Sterilität [4]: 99,2%; Prozentsatz des Ansetzens von Körnern bei freier Bestäubung [4]: 90,0%
O=C(O)CCCCS(=O)(=O)CCCCC(=O)O [Beispiel 17, δ, δ'--Sulfonyldivaleriansäure]	26,7	0,0	100,0%	83,6%	–
Bis(di-n-butyläther) der δ, δ' -Thiodiväleriansäure [Beispiel 29]	–	–	–	–	Anzahl von Körnern der Ähre bei freier Bestäubung [4]: 30,6; Anzahl von Körnern der Ähre im Isolator [4]: 0,0; Prozentsatz der Sterilität [4]: 100,0%; Prozentsatz des Ansetzens von Körnern bei freier Bestäubung [4]: 76,2%
